In publication PMC7918733, “Biological Profiling of Semisynthetic C19-Functionalized Ferruginol and Sugiol Analogues” (Antibiotics, 2021):
Read-outs that look alike come from different tables or passages of the source.

What was measured:
SW1573 (Lung) [1] = test: Antiproliferative SRB assay; assay type: cell-based, human; details: Homo sapiens, SW1573, mean ± SD of at least two experiments
Method: (§1) Cells, cultures and the activity test of abietane analogs followed reported methods. The SRB assay was performed as previously described, and the antiproliferative activity was given as GI50 values, which were calculated according to NCI formulas.

A549 (Lung) [2] = test: Antiproliferative SRB assay; assay type: cell-based, human; details: Homo sapiens, A549, mean ± SD of at least two experiments
Method: as §1

WiDr (Colon) [3] = test: Antiproliferative SRB assay; assay type: cell-based, human; details: Homo sapiens, WiDr, mean ± SD of at least two experiments
Method: as §1

P. falciparum K1 strain = test: Antiplasmodial DNA stain-based growth assay; assay type: cell-based; details: Plasmodium falciparum, K1; chloroquine-resistant strain; 72 h incubation; read-out: P. falciparum K1 EC50
Method: (§2) Assays were performed by using previously described DNA stain-based assay and methods, including cytotoxicity assays.

P. falciparum 3D7 strain = test: Antiplasmodial DNA stain-based growth assay; assay type: cell-based; details: Plasmodium falciparum, 3D7; chloroquine-sensitive strain; 72 h incubation; read-out: P. falciparum 3D7 EC50
Method: as §2

[4] = target: T1, GABAA receptor subtype (α1β2γ2S) (Homo sapiens, UniProt P14867+P18507+P47870); test: Two-microelectrode voltage-clamp in Xenopus laevis oocytes; details: for activation at 10 µM: read-out: IGABA Potentiation of 10 µM (%); for activation at 100 µM: read-out: IGABA Potentiation of 100 µM (%)
Method: All molecules were tested at concentrations of 10, 100 μM and compared with dehydroabietic acid (DHA) (3) as a reference [16].

L. infantum amastigotes [5] = test: Intracellular amastigote assay (fluorometric test); assay type: cell-based; details: Leishmania infantum, read-out: L. infantum IC50 ± SD
BJ = test: Cytotoxicity on mammalian cell lines; assay type: cell-based; details: Homo sapiens, read-out: BJ EC50
Method: as §2

RAJI = test: Cytotoxicity on mammalian cell lines; assay type: cell-based; details: Homo sapiens, read-out: RAJI EC50
Method: as §2

HepG2 = test: Cytotoxicity on mammalian cell lines; assay type: cell-based; details: Homo sapiens, HepG2; read-out: HepG2 EC50
Method: as §2

HEK293 = test: Cytotoxicity on mammalian cell lines; assay type: cell-based; details: Homo sapiens, HEK293; read-out: HEK293 EC50
Method: as §2

[6] = test system: L. amazonensis amastigotes; test: Intracellular amastigote assay (fluorometric test); assay type: cell-based; details: Leishmania amazonensis, read-out: L. amazonensis IC50 ± SD
[7] = test system: L. donovani promastigotes; test: Antileishmanial in vitro promastigote assay; details: Leishmania donovani, read-out: L. donovani IC50 ± SD
Method: (§3) The compounds were additionally studied in a panel of mammalian cell lines to determine cytotoxicity.
(§4) The parasites, culture procedure and the activity of functionalized abietane analogs on Leishmania promastigotes were performed according to the method previously reported by us [28], while the intracellular amastigote assay was performed on L. amazonensis and L. infantum according to the fluorometric test [29]. The J774 cell culture and the cytotoxicity assay was carried out according to our previously described method [30].

[8] = test system: L. amazonensis promastigotes; test: Antileishmanial in vitro promastigote assay; details: Leishmania amazonensis, read-out: L. amazonensis IC50 ± SD
Method: as §3, §4

T-47D (Breast) [9] = test: Antiproliferative SRB assay; assay type: cell-based; details: Homo sapiens, T47D, mean ± SD of at least two experiments
Method: as §1

HeLa (Cervix) [10] = test: Antiproliferative SRB assay; assay type: cell-based; details: Homo sapiens, mean ± SD of at least two experiments
Method: as §1

HBL-100 (Breast) [11] = test: Antiproliferative SRB assay; assay type: cell-based; details: Homo sapiens, mean ± SD of at least two experiments
Method: as §1

in vitro = details: mouse, Macrophages J774 CC50
Method: as §3, §4

[12] = test system: L. guyanensis promastigotes; test: Antileishmanial in vitro promastigote assay; details: Leishmania guyanensis, read-out: L. guyanensis IC50 ± SD
Method: as §3, §4

[13] = test system: L. infantum promastigotes; test: Antileishmanial in vitro promastigote assay; details: Leishmania infantum, read-out: L. infantum IC50 ± SD
Method: as §3, §4

[14] = Cytotoxicity assay on J774 macrophages; details: mouse, Macrophages J774 CC50, 50% reduction of cell viability
Method: as §3, §4

[15] = test system: L. amazonensis promastigotes; design: method as in PMID 30840453; details: C18-congeners, read-out: L. amazonensis IC50 ± SD; cited from earlier work
WiDr (Colon) [16] = details: C18-congeners; cited from earlier work
[17] = test system: L. donovani promastigotes; details: C18-congeners, read-out: L. donovani IC50 ± SD; cited from earlier work
[18] = test system: L. amazonensis amastigotes; design: method as in PMID 30840453; details: C18-congener, read-out: L. amazonensis IC50 ± SD; cited from earlier work
HBL-100 (Breast) [19] = details: C18-congeners; cited from earlier work
T-47D (Breast) [20] = details: C18-congeners; cited from earlier work
HeLa (Cervix) [21] = details: C18-congeners; cited from earlier work
L. infantum amastigotes [22] = test system: L. infantum amastigotes; design: method as in PMID 30840453; details: C18-congener, read-out: L. infantum IC50 ± SD; cited from earlier work
Macrophages J774 [23] = details: read-out: Macrophages J774 CC50; C18-congeners; cited from earlier work
[24] = test system: L. infantum promastigotes; design: method as in PMID 30840453; details: C18-congeners, read-out: L. infantum IC50 ± SD; cited from earlier work
A549 (Lung) [25] = details: C18-congeners; cited from earlier work
SW1573 (Lung) [26] = details: C18-congeners; cited from earlier work
[27] = test system: L. guyanensis promastigotes; design: method as in PMID 30840453; details: C18-congeners, read-out: L. guyanensis IC50 ± SD; cited from earlier work
[28] = target: T1, GABAA receptor subtype (α1β2γ2S); design: expressed in transfected cells; host or cells: Xenopus laevis oocytes; details: C18-congeners, cited from earlier work
[29] = test system: Leishmania promastigotes (L. donovani, L. infantum, L. guyanensis, L. amazonensis); test: Antipromastigote activity over the tested Leishmania spp.; details: read-out: antipromastigote activity IC50 values (range over species)
Method: The parasites, culture procedure and the activity of functionalized abietane analogs on Leishmania promastigotes were performed according to the method previously reported by us [28], while the intracellular amastigote assay was performed on L. amazonensis and L. infantum according to the fluorometric test [29].

Macrophages J774 [30] = details: mouse
Method: as §3, §4

A549 cell line = test system: A549 cell line; design: method as in doi:10.1016/j.phytol.2013.04.003; details: MTT method; cited from earlier work
[31] = test system: human solid tumor cell lines HBL-100, A549, HeLa, T-47D, SW1573, WiDr; test: Antiproliferative SRB assay, panel of six cell lines; assay type: cell-based; details: over the six solid tumor cell lines, read-out: GI50 (range over the cell lines)
Method: as §1

T1 sequence (P14867 28-456): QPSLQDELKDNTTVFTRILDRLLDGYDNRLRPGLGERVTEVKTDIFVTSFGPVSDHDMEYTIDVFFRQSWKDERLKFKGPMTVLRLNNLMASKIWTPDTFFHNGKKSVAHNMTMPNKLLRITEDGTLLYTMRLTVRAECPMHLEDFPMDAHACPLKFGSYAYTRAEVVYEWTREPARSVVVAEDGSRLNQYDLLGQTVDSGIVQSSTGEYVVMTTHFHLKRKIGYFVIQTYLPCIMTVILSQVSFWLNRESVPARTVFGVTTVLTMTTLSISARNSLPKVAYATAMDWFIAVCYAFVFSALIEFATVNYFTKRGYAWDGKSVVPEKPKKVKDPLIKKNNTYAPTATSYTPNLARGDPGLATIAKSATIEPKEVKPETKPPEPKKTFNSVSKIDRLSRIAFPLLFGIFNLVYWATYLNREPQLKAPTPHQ
T1 sequence (P47870 26-512): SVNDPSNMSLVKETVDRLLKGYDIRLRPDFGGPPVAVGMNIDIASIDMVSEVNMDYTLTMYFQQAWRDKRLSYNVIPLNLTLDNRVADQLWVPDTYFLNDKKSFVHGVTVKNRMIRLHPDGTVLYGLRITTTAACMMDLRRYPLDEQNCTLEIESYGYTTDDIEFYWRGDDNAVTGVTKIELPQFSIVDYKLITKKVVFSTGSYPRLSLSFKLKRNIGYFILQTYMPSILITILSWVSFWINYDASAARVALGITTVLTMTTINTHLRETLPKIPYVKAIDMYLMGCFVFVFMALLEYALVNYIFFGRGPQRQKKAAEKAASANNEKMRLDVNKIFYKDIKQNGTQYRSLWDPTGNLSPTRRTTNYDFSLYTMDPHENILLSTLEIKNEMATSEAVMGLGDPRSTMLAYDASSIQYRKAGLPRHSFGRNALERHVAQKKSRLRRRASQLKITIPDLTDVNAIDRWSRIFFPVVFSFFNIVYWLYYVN
T1 sequence (P18507 40-467 isoform P18507-1 limits assumed): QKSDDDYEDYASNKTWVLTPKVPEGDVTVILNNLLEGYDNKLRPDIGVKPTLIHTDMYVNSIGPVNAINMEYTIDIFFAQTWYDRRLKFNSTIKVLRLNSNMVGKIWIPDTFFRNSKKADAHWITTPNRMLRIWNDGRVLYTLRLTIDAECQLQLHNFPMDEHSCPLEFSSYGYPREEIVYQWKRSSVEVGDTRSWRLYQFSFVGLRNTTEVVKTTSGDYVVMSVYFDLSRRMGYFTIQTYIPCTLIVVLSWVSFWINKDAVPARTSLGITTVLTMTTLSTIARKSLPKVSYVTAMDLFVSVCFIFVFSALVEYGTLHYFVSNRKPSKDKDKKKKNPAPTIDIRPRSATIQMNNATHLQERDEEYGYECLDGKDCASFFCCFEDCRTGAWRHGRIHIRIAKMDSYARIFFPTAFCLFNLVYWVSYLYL

Row | SMILES | GI50 (SW1573 (Lung) [1]) [µM] | GI50 (A549 (Lung) [2]) [µM] | GI50 (WiDr (Colon) [3]) [µM] | EC50 (P. falciparum K1 strain) [µM] | EC50 (P. falciparum 3D7 strain) [µM] | activation at 10 µM [4] [%] | activation at 100 µM [4] [%] | IC50 (L. infantum amastigotes [5]) [µM] | EC50 (BJ) [µM] | EC50 (RAJI) [µM] | EC50 (HepG2) [µM] | EC50 (HEK293) [µM] | IC50 [6] [µM] | IC50 [7] [µM] | IC50 [8] [µM] | GI50 (T-47D (Breast) [9]) [µM] | GI50 (HeLa (Cervix) [10]) [µM] | GI50 (HBL-100 (Breast) [11]) [µM] | CC50 (in vitro) [µM] | IC50 [13] [µM] | other results
1 | CC(C)c1cc2c(cc1O)C1(C)CCCC(C)(C(=O)O)C1CC2=O (single isomer, unassigned; (+)) [Compound 8a, (+)-4-epi-liquiditerpenoic acid A] | 41 ± 17 | 12 ± 2.9 | 33 ± 15 | > 15 | > 15 | -8 ± 1 | -8 ± 3 | 20.1 ± 2 | > 25 | > 25 | > 25 | > 25 | 21.4 ± 2.3 | 84.4 ± 31.6 | 94.5 ± 6.5 | 31 ± 12 | 12 ± 3.8 | 39 ± 14 | > 200 | 100 ± 20 | IC50 [12]: 3 ± 0.9 µM
2 | COC(=O)[C@@]1(C)CCC[C@]2(C)c3cc(C(C)=O)c(C(C)C)cc3CC[C@@H]12 [Compound 9] | 25 ± 11 | 15 ± 7 | 15 ± 2.1 | 12.6 | 12.8 | – | – | 22.7 ± 5.9 | > 25 | > 25 | > 25 | > 25 | 30.3 ± 1.2 | 8.9 ± 2 | 14.1 ± 1.4 | 14 ± 1 | 15 ± 4.1 | 14 ± 2.1 | – | 20.3 ± 4.6 | IC50 [12]: 18.7 ± 0.8 µM; CC50 [14]: > 200 µM
3 | COC(=O)[C@]1(C)CCC[C@]2(C)c3cc(C(C)=O)c(C(C)C)cc3CC[C@@H]12 [Compound 9b] | – | – | – | – | – | – | – | – | – | – | – | – | – | – | – | – | – | – | – | – | IC50 [15]: 11.6 ± 0.6 µM; GI50 (WiDr (Colon) [16]): 17 ± 2.4 µM; IC50 [17]: 14.8 ± 0.9 µM; IC50 [18]: 31.4 ± 6.2 µM; GI50 (HBL-100 (Breast) [19]): 15 ± 1.2 µM; GI50 (T-47D (Breast) [20]): 10 ± 1.5 µM; GI50 (HeLa (Cervix) [21]): 11 ± 1 µM; IC50 (L. infantum amastigotes [22]): 37.2 ± 2.4 µM; CC50 (Macrophages J774 [23]): 130 ± 8.9 µM; IC50 [24]: 2.5 ± 0.6 µM; GI50 (A549 (Lung) [25]): 18 ± 2.3 µM; GI50 (SW1573 (Lung) [26]): 11 ± 4.6 µM; IC50 [27]: 14.2 ± 0.4 µM; IGABA Potentiation of 10 µM (%) ([28]; 10 µM): 2.7 ± 0.9%; IGABA Potentiation of 100 µM (%) ([28]; 100 µM): −2.9 ± 5.1%
4 | COC(=O)[C@@]1(C)CCC[C@]2(C)c3cc(OC(C)=O)c(C(C)C)cc3CC[C@@H]12 [Compound 10] | 18 ± 3.4 | 6.5 ± 2.7 | 4.5 ± 1.4 | 3.1 | > 15 | – | – | – | > 25 | > 25 | > 25 | > 25 | – | 3.9 ± 0.1 | 7.4 ± 0.6 | 4.2 ± 1.5 | 7 ± 1.7 | 11 ± 2.3 | – | 3.6 ± 0.6 | CC50 [14]: 30.2 ± 2 µM
5 | COC(=O)[C@@]1(C)CCC[C@]2(C)c3cc(OC(C)=O)c(C(C)C)cc3C(=O)C[C@@H]12 [Compound 11] | 17 ± 7.5 | 3.1 ± 0.9 | 5.2 ± 3.1 | 5.7 | 7.1 | 1 ± 3 | 75 ± 4 | – | > 25 | > 25 | > 25 | > 25 | – | – | – | 6.1 ± 1.9 | 5.6 ± 2.9 | 7.4 ± 0.7 | – | – | CC50 [14]: 45.8 ± 5.6 µM
6 | COC(=O)[C@@]1(C)CCC[C@]2(C)c3cc(O)c(C(C)C)cc3CC[C@@H]12 [Compound 12] | 12 ± 4.1 | 2.3 ± 1.5 | 3.7 ± 1.9 | 2.1 | 4.7 | 1 ± 3 | 65 ± 6 | – | > 25 | > 25 | > 25 | > 25 | – | – | – | 4.2 ± 1.3 | 5.1 ± 1.9 | 11 ± 3 | – | – | CC50 [14]: 65.4 ± 7 µM
7 | CC(C)c1cc2c(cc1O)[C@@]1(C)CCC[C@](C)(C(=O)O)[C@@H]1CC2 [Compound 13, lambertic acid] | 32 ± 8.9 | 17 ± 6.1 | 59 ± 7.3 | > 15 | > 15 | 3 ± 3 | 71 ± 23 | 19.2 ± 3.8 | > 25 | > 25 | > 25 | > 25 | 8.8 ± 1.6 | 12.8 ± 2.8 | 51.5 ± 3.2 | 41 ± 8.4 | 29 ± 13 | 34 ± 4.2 | > 200 | 29.1 ± 1.5 | IC50 [29]: 12.8 to 51.5 µM; CC50 (Macrophages J774 [30]): 217 ± 34 µM; fold less cytotoxic than 12-hydroxydehydroabietic acid (Macrophages J774 [30]): 2.5 fold; IC50 [12]: 17.8 ± 1.2 µM
8 | CC(C)c1cc2c(cc1O)[C@@]1(C)CCC[C@](C)(CO)[C@@H]1CC2 [Compound 14, 19-hydroxyferruginol] | 13 ± 1.3 | 1.8 ± 0.4 | 13 ± 3.7 | 11.6 | > 15 | 64 ± 13 | 507 | – | > 25 | > 25 | > 25 | > 25 | – | – | – | 12 ± 1.8 | 3.1 ± 0.9 | 13 ± 1.6 | 51.9 ± 5.9 | – | IC50 (A549 cell line): 14 µM; GI50 [31]: 1.8 to 13 µM
9 | COC(=O)[C@@]1(C)CCC[C@]2(C)c3cc(O)c(C(C)C)cc3C(=O)C[C@@H]12 [Compound 16] | > 100 | 11 ± 6.9 | 6.1 ± 4.2 | 3.9 | 4.8 | 5 ± 4 | 104 ± 26 | 16.5 ± 4.6 | > 25 | > 25 | > 25 | > 25 | 16.1 ± 2 | 11.8 ± 0.8 | 8.5 ± 0.3 | 47 ± 25 | 18 ± 1.7 | 65 ± 4.9 | > 200 | 10.1 ± 1.4 | IC50 [12]: 5.6 ± 0.6 µM
